Where a name gives a salt, the structure may show the parent alone. Read-outs that look alike come from different tables or passages of the source.
Test system: compound-treated mice
Assay: Neuropharmacological assay (SmartCube): behavioral activity signature and minimal effective dose
Assay type: in vivo
Conditions: for minimal effective dose: Mus musculus, ip; for AD: ADHD (probability of activity signature) / AG: analgesic (probability of activity signature) / AX: anxiolytic (probability of activity signature) / CE: cognitive enhancer (probability of activity signature) / DP: anti-depressant (probability of activity signature) / MS: mood stabilizer (probability of activity signature) / PS: anti-psychotic (probability of activity signature) / SD: sedative hypnotic (probability of activity signature) / UN: uncharacterized CNS activity (probability of activity signature): i.p. 15 min before test, most efficacious dose(s)
Procedure, shortened: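 Video-recorded behavior is compared algorithmically against a reference-compound database, yielding class probabilities (best dose reported). Compounds given i.p. in NMP/PEG/propylene glycol 15 min pre-test at 3 doses; potency as MED, the dose (mpk, range usually 0.3–30) reaching ≥50% total activity.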

[1] = MED = dose having 50% or more total activity, read-out: Potency: minimal effective dose (MED)
[2] = MED = dose having 50% or more total activity, read-out: Potency: minimal effective dose (MED), binned

Row | Compound | minimal effective dose [1] [mg/kg] | AD: ADHD (probability of activity signature) | AG: analgesic (probability of activity signature) | AX: anxiolytic (probability of activity signature) | CE: cognitive enhancer (probability of activity signature) | DP: anti-depressant (probability of activity signature) | MS: mood stabilizer (probability of activity signature) | PS: anti-psychotic (probability of activity signature) | SD: sedative hypnotic (probability of activity signature) | UN: uncharacterized CNS activity (probability of activity signature) | minimal effective dose [2] [mg/kg] | Potency: minimal effective dose (MED) (MED = dose having 50% or more total activity)
1 | Cc1ccc2c(c1)[C@@H](N)[C@H](C)OC2.Cl (relative stereo) [Example 77, trans-3,6-Dimethylisochroman-4-amine hydrochloride] | < 3 | + (LOQ ≤ + <5%) | ++ (5% ≤ ++ <25%) | ++ (5% ≤ ++ <25%) | ++ (5% ≤ ++ <25%) | ++ (5% ≤ ++ <25%) | + (LOQ ≤ + <5%) | ++ (5% ≤ ++ <25%) | + (LOQ ≤ + <5%) | +++ (25% ≤ +++ <50%) |  | 
2 | CN[C@@H]1CO[C@@H](C)c2ccccc21 (relative stereo) [Example 236, trans-N,1-dimethylisochroman-4-amine hydrochloride] |  | + (LOQ ≤ + <5%) | ++ (5% ≤ ++ <25%) | ++ (5% ≤ ++ <25%) | + (LOQ ≤ + <5%) | ++ (5% ≤ ++ <25%) | + (LOQ ≤ + <5%) | ++ (5% ≤ ++ <25%) | + (LOQ ≤ + <5%) | ++++ (50% ≤ ++++) | 3 to 10 | 
3 | Cc1ccc2c(c1C)C(NCCO)COC2.Cl (stereo not drawn) [Example 56] | 10 to 30 | + (LOQ ≤ + <5%) | +++ (25% ≤ +++ <50%) | ++ (5% ≤ ++ <25%) | ++ (5% ≤ ++ <25%) | ++ (5% ≤ ++ <25%) | + (LOQ ≤ + <5%) | + (LOQ ≤ + <5%) | + (LOQ ≤ + <5%) | + (LOQ ≤ + <5%) |  | 
4 | CC[C@@H]1OCc2cccc(C)c2[C@@H]1N.Cl [Example 208] |  | + (LOQ ≤ + <5%) | + (LOQ ≤ + <5%) | +++ (25% ≤ +++ <50%) | ++ (5% ≤ ++ <25%) | ++ (5% ≤ ++ <25%) | ++ (5% ≤ ++ <25%) | ++ (5% ≤ ++ <25%) | + (LOQ ≤ + <5%) | +++ (25% ≤ +++ <50%) | 3 to 10 | 
5 | Cl.NC1CCOCc2cc(Cl)ccc21 (stereo not drawn) [Example 38] | 10 to 30 | + (LOQ ≤ + <5%) | ++ (5% ≤ ++ <25%) | ++ (5% ≤ ++ <25%) | + (LOQ ≤ + <5%) | ++ (5% ≤ ++ <25%) | + (LOQ ≤ + <5%) | ++ (5% ≤ ++ <25%) | + (LOQ ≤ + <5%) | +++ (25% ≤ +++ <50%) |  | 
6 | COc1cccc2c1COCC2N.Cl (stereo not drawn) [Example 24] | 10 to 30 | + (LOQ ≤ + <5%) | + (LOQ ≤ + <5%) | ++ (5% ≤ ++ <25%) | + (LOQ ≤ + <5%) | ++ (5% ≤ ++ <25%) | + (LOQ ≤ + <5%) | ++ (5% ≤ ++ <25%) | ++ (5% ≤ ++ <25%) | + (LOQ ≤ + <5%) |  | 
7 | C[C@@H]1OCc2ccccc2[C@@H]1N (single isomer, unassigned) [Example 153] | 3 to 10 | + (LOQ ≤ + <5%) | ++ (5% ≤ ++ <25%) | ++ (5% ≤ ++ <25%) | ++ (5% ≤ ++ <25%) | + (LOQ ≤ + <5%) | + (LOQ ≤ + <5%) | ++ (5% ≤ ++ <25%) | + (LOQ ≤ + <5%) | +++ (25% ≤ +++ <50%) |  | 
8 | CC[C@@H]1OCc2ccc(F)cc2[C@@H]1N.Cl [Example 201] |  | + (LOQ ≤ + <5%) | + (LOQ ≤ + <5%) | ++ (5% ≤ ++ <25%) | ++ (5% ≤ ++ <25%) | + (LOQ ≤ + <5%) | + (LOQ ≤ + <5%) | ++ (5% ≤ ++ <25%) | + (LOQ ≤ + <5%) | ++++ (50% ≤ ++++) | 3 to 10 | 
9 | CC(C)c1cccc2c1COCC2N.Cl (stereo not drawn) [Example 18, 8-Isopropylisochroman-4-amine hydrochloride] | 10 to 30 | + (LOQ ≤ + <5%) | +++ (25% ≤ +++ <50%) | ++ (5% ≤ ++ <25%) | ++ (5% ≤ ++ <25%) | ++ (5% ≤ ++ <25%) | + (LOQ ≤ + <5%) | ++ (5% ≤ ++ <25%) | ++ (5% ≤ ++ <25%) | + (LOQ ≤ + <5%) |  | 
10 | C[C@H]1OCc2ccc(F)cc2[C@H]1N [Example 186] |  | + (LOQ ≤ + <5%) | ++ (5% ≤ ++ <25%) | ++ (5% ≤ ++ <25%) | ++ (5% ≤ ++ <25%) | ++ (5% ≤ ++ <25%) | + (LOQ ≤ + <5%) | ++ (5% ≤ ++ <25%) | + (LOQ ≤ + <5%) | +++ (25% ≤ +++ <50%) | 3 to 10 | 
11 | Cl.NC1COCCc2ccc3ccccc3c21 (stereo not drawn) [Example 35] |  | + (LOQ ≤ + <5%) | ++ (5% ≤ ++ <25%) | +++ (25% ≤ +++ <50%) | ++ (5% ≤ ++ <25%) | ++ (5% ≤ ++ <25%) | + (LOQ ≤ + <5%) | ++ (5% ≤ ++ <25%) | + (LOQ ≤ + <5%) | +++ (25% ≤ +++ <50%) |  | B (>3 to 10 mpk)
12 | Cc1ccc(C)c2c1COC[C@H]2N (single isomer, unassigned) [Example 165] |  | + (LOQ ≤ + <5%) | + (LOQ ≤ + <5%) | ++ (5% ≤ ++ <25%) | ++ (5% ≤ ++ <25%) | ++ (5% ≤ ++ <25%) | + (LOQ ≤ + <5%) | ++ (5% ≤ ++ <25%) | + (LOQ ≤ + <5%) | ++++ (50% ≤ ++++) | 3 to 10 | 
13 | Cc1cccc2c1[C@H](N)COC2 (single isomer, unassigned) [Example 133] | < 3 | + (LOQ ≤ + <5%) | ++ (5% ≤ ++ <25%) | ++ (5% ≤ ++ <25%) | ++ (5% ≤ ++ <25%) | ++ (5% ≤ ++ <25%) | + (LOQ ≤ + <5%) | +++ (25% ≤ +++ <50%) | + (LOQ ≤ + <5%) | ++++ (50% ≤ ++++) |  | 
14 | C[C@@H]1OC[C@@H](N)c2ccccc21.Cl (relative stereo) [Example 105, trans-1-Methylisochroman-4-amine hydrochloride] | 10 to 30 | + (LOQ ≤ + <5%) | ++ (5% ≤ ++ <25%) | ++ (5% ≤ ++ <25%) | ++ (5% ≤ ++ <25%) | ++ (5% ≤ ++ <25%) | ++ (5% ≤ ++ <25%) | ++ (5% ≤ ++ <25%) | + (LOQ ≤ + <5%) | +++ (25% ≤ +++ <50%) |  | 
15 | C#CCN[C@H]1COCc2ccccc21.Cl [Example 266] |  | + (LOQ ≤ + <5%) | + (LOQ ≤ + <5%) | + (LOQ ≤ + <5%) | + (LOQ ≤ + <5%) | + (LOQ ≤ + <5%) | ++ (5% ≤ ++ <25%) | + (LOQ ≤ + <5%) | ++ (5% ≤ ++ <25%) | + (LOQ ≤ + <5%) | 3 to 10 | 

Reference: patent US11077090B2, “Compounds and compositions and uses thereof” (Sunovion Pharmaceuticals Inc., priority 2016, dated 2021)
